Key:
[1] = molecular target: T1, Human 11β-HSD1 (Homo sapiens, UniProt P28845); test: 11β-HSD1 HEK assay (whole HEK 293 cells stably transfected with HSD11B1, SPA); format: cell-based; set-up: expressed in transfected cells; host or cells: HEK 293; conditions: HEK293
[2] = molecular target: T1, Human 11β-HSD1; test: 11β-HSD1 HTRF assay (human liver microsome fractions, cortisol by HTRF); format: biochemical; conditions: 10 μM compound; human liver microsomes
Description: 11β-HSD1 HTRF Assay Protocol
The 11β-HSD Type 1 assay was carried out at room temperature in 96 well microtitre plates in a total volume of 40 μl. Assay buffer contained 30 mM Tris.HCl, 1 mM EDTA, pH 7.2. Inhibitor compounds were tested at varying concentrations at a final Dimethyl Sulphoxide concentration of 1%. Compounds were usually tested at 10 μM. The substrate mixture contained cortisone, NADPH and glucose-6-phosphate at final concentrations of 1 μM, 180 μM and 1 mM respectively. Assays were started by the addition of 10p1 human liver microsome fractions, 20 mg per ml protein, containing 11β-HSD Type 1, diluted 1 to 40 prior to use. Following mixing microtitre plates were shaken for 30 minutes. Reactions were stopped by the addition of 10 μl 1 mM Glyccheritinnic acid solution. Production of Cortisol was measured by Homogenous Time Resolved Fluorescence using a cortisol assay kit; Cisbio International Cortisol HTRF kit (62CORPEB), following the manufacturer's protocol.

[3] = molecular target: T1, Human 11β-HSD1; test: 11β-HSD1 HEK assay (whole HEK 293 cells stably transfected with HSD11B1, SPA); format: cell-based; set-up: expressed in transfected cells; host or cells: HEK 293; conditions: HEK293, read-out: % INHIBITION of Human 11 β-HSD1 at 10 μM (HEK)
Description: 11β-HSD1 HEK Assay Protocol (Cell Based Assay)
11β-HSD1 activity is measured in whole HEK 293 cells stably transfected with the HSD11B1 gene. Cells are incubated in 96-well microplates in the presence of tritiated substrate. Enzyme activity is determined by measuring the amount of tritated product by scintillation proximity assay (SPA). Assay plates contain internal high and low controls to allow calculation of percentage inhibition.
2. When the cells are 80% confluent the medium is removed from each well. 100 μl fresh, serum-free, medium containing ^3H-cortisone and test compound in 1% DMSO is added to each well*. Control wells are also dispensed.
3. The plate is incubated at […] for the required time period.
4. 50 μl of media is removed from each well and transferred to a microplate containing 100 μl of a pre-incubated mixture of anti-cortisol antibody and SPA bead. The mixture is incubated with gentle shaking until equilibrium is reached, before transferring to a scintillation counter to establish the enzyme activity in each sample.
10 μl of compound is dispensed into each well of a 96-well microplate in 10% DMSO at 100 μM concentration. 90 μl media containing ^3H-cortisone is added to each well. The compound/media/substrate mixture is then transferred to the assay plate containing the cells.

T1 sequence (P28845 whole entry): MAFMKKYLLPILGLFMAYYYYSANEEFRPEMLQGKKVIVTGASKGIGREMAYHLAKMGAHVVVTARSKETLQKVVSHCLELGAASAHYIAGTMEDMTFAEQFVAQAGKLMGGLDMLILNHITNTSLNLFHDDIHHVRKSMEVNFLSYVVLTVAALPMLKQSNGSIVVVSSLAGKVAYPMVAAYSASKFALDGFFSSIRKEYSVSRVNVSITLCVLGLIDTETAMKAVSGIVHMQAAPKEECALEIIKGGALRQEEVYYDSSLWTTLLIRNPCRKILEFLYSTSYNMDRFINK

Row | inhibition at 1 µM [1] | SMILES | inhibition at 10 µM [2] | inhibition at 10 µM [3]
1 | 63% | NC(=O)c1ccc(COCC(=O)C23CC4CC(CC(C4)C2)C3)cc1 [Compound 17] |  | 
2 |  | O=C(NCCN1CCCCC1)C12CC3CC(CC(C3)C1)C2 [compound 1598] | > 60% | > 60%
3 |  | Cc1ccc(-c2noc(C34CC5CC(CC(C5)C3)C4)n2)cc1 [compound 1599] | 20 to 60% | 20 to 60%
4 |  | O=C(COc1ccc(Cl)cc1)C12CC3CC(CC(C3)C1)C2 [compound 1610] | > 60% | > 60%
5 |  | O=C(COc1cc(Cl)ccc1Cl)C12CC3CC(CC(C3)C1)C2 [compound 1618] | > 60% | > 60%
6 |  | Cc1ccc(OCC(=O)C23CC4CC(CC(C4)C2)C3)cc1 [compound 1619] | > 60% | > 60%
7 |  | O=C(CSCc1ccc(Cl)cc1)C12CC3CC(CC(C3)C1)C2 [compound 1621] | > 60% | > 60%
8 |  | O=C(COCc1ccc(Cl)cc1)C12CC3CC(CC(C3)C1)C2 [compound 1626] | > 60% | 20 to 60%
9 |  | O=C(C[S+]([O-])Cc1ccc(Cl)cc1)C12CC3CC(CC(C3)C1)C2 (stereo not shown) [compound 1628] | > 60% | > 60%
10 |  | O=C(CS(=O)(=O)Cc1ccc(Cl)cc1)C12CC3CC(CC(C3)C1)C2 [compound 1632] | > 60% | > 60%
